Data on two compounds can be found in ChEMBL document CHEMBL1201862, “PubChem BioAssay data set” (2004).

Molecules are shown by their SMILES. Calls of active or inactive are those of the source. How the calls were made is not given here.

The target of one assay is T1, ORF 73 (Human herpesvirus 8, UniProt O40947).
T1 sequence (O40947 whole entry): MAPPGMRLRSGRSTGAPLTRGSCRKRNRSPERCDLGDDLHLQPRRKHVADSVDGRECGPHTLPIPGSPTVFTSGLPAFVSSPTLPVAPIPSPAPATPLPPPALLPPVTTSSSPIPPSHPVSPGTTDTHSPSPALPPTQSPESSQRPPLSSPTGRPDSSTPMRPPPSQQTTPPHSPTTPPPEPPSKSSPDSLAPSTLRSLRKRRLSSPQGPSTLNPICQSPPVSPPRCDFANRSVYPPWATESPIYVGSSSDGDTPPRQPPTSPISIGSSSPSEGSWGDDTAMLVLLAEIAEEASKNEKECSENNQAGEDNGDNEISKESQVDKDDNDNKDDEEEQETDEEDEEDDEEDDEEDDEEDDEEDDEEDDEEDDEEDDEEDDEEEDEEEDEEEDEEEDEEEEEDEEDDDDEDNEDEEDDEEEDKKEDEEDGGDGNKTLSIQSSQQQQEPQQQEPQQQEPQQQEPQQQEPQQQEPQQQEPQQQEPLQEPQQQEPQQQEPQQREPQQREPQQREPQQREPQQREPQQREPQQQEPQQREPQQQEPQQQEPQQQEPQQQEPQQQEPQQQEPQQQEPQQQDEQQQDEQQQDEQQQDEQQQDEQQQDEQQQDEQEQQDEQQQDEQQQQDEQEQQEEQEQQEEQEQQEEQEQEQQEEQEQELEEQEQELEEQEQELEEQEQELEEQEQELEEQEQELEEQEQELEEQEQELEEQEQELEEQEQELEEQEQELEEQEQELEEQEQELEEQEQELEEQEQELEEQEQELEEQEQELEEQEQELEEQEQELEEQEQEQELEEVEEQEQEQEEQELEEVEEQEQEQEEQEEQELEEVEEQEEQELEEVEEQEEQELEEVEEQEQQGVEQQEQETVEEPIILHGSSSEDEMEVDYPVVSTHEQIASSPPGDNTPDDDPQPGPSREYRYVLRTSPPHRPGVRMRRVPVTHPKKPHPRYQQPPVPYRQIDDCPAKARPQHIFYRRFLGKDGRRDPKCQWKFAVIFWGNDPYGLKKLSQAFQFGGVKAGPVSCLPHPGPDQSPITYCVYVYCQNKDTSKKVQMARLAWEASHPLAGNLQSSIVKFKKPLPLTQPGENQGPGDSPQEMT
In words: inhibitors of C-LANA binding to LBS DNA, dose response, biochemical, fluorescence polarization, cherry-picked samples (AID 504725).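 Further: fluorescence polarization of a labeled DNA duplex reporting LANA DNA binding; potency is for inhibitors that block LANA binding to the DNA.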 Further details: species or system Human gammaherpesvirus 8.

For the next assay, the target named is Beta-galactosidase (Escherichia coli, UniProt Q8VNN2). In words: beta-galactosidase enzyme inhibitors and activators, dose response, artefact control for CCR6 antagonist project, biochemical, E. coli enzyme, set 3 (AID 504712). It is filed as functional.
Chain of Beta-galactosidase (Q8VNN2 whole entry): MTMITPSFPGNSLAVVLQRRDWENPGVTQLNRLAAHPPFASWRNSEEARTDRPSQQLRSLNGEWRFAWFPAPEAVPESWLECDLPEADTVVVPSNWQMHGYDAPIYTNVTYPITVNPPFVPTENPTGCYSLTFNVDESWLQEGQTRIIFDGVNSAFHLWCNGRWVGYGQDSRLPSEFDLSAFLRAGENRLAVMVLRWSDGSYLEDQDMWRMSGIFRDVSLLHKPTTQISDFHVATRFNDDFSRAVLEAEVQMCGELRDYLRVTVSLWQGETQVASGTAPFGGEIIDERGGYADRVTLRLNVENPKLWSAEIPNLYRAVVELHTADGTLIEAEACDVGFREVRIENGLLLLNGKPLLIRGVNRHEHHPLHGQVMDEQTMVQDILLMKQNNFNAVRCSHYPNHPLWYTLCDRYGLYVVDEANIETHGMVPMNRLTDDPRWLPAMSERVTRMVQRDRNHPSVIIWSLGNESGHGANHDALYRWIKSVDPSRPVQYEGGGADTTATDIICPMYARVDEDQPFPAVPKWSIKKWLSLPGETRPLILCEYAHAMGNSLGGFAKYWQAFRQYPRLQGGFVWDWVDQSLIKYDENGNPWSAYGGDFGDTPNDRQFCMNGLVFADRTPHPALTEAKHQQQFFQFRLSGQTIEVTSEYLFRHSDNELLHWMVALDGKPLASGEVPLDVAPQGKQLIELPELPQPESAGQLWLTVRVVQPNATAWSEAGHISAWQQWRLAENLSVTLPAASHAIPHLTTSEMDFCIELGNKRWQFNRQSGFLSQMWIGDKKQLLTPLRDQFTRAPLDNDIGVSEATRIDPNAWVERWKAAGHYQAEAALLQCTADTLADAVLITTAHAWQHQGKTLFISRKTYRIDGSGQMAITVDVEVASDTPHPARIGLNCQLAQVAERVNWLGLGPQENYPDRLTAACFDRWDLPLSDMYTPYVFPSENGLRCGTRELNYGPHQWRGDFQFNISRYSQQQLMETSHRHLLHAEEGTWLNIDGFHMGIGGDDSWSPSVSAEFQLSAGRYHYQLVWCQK

Turning to `COc1cccc2c1NC(C(=O)O)C1CC=CC21` (configuration not stated), the AC50 at ORF 73 was 35.8 µM (active).

Consider `CCc1ccc(S(=O)(=O)/N=C2\C=C(Nc3ccc(O)cc3)C(=O)c3ccccc32)cc1`, for which the IC50 at Beta-galactosidase was 41.3 µM (inactive).
